# Like-named read-outs stand apart in the source and are kept apart here.
# What was measured:
# [1] = target: trans-sialidase (TcTS); conditions: literature, cited from earlier work; for inhibition of trans-sialidase: in words
# [2] = test system: T. cruzi nitroreductase (TcNTR72); assay: T. cruzi nitroreductase activity assay (NADH oxidation); conditions: 50 μM NADH, 25 °C
# Procedure: TcNTR72 was expressed, purified, and its activity was tested following previously described protocol. […] This mixture was incubated at room temperature for 5 min. […] All assays were performed in triplicate for each measurement and for each concentration. Benznidazole was used as a control.
# [3] = Cellular viability (MTT), noninfected LLC-MK2; type: cell-based; conditions: rhesus monkey, noninfected LLC-MK2 epithelial cells; noninfected LLC-MK2, Table 2 (treatment after infection); read-out: CC50 non infected MK2
# Procedure: (§1) The antiamastigote activity was assessed by calculating the infection index, defined as the percentage of infected cells multiplied by the mean number of amastigotes per cell. Noninfected control cells were subjected to identical treatment conditions to evaluate the cytotoxicity of the compounds (CC50). This comprehensive approach allowed for the simultaneous assessment of antiparasitic efficacy and compound-induced cytotoxicity, offering valuable insights into their therapeutic potential.
# (§2) Following 24 h of treatment, 10 μL of 5 mg/mL of MTT (3-(4,5-dimethylthiazol-2-yl)-2,5-diphenyltetrazolium bromide) was added per well, and absorbance was evaluated in the Eon Microplate Spectrophotometer Reader (BioTek) at 570–690 nm. CC50 were calculated by Nonlinear regression curves (log[inhibitor] vs normalized response).
# [4] = test system: trypomastigotes forms of T. cruzi Tulahuen strain (LacZ); set-up: method as in de Andrade et al., 2015; conditions: previous work of the group; ref de Andrade et al., 2015; read-out: IC50 against trypomastigotes forms of T. cruzi Tulahuen strain (LacZ); cited from earlier work
# [5] = test system: T. cruzi intracellular amastigotes (Colombian strain) in C2C12 cells; assay: Antiamastigote activity, infection index, treatment after infection, C2C12; type: cell-based, Trypanosoma cruzi; conditions: Trypanosoma cruzi; infected C2C12, 48 h treatment after infection
# Procedure: (§3) Considering the dynamics of T. cruzi infection in humans, characterized by an increase in parasitic load through intracellular replication of amastigote forms in various cell types, we evaluated the action of the compounds in LLC-MK2 (epithelial cells) and C2C12 (myoblasts) using an in vitro infection model.
# as §1
# (§4) In the infection plate each well was added 50 μL of cold methanol for cell fixation. The plate was kept at −20 °C for 1 h. After this period, the wells were blocked with 50 μL of PBS 1X-Saponin 0.1 + 10% rabbit serum for 10 min at room temperature. Following, the wells were washed four times with PBS 1X-Saponin 0.1% and 50 μL of the same solution was added to each well, incubating for 20 min at room temperature. Subsequently, 50 μL of PBS 1X-Saponin 0.1% + anti-T. cruzi antibody (from serum of infected patients) at a 1:10 dilution was added, and the plate was incubated for 1 h at room temperature. The wells were then washed four times with PBS 1X-Saponin 0.1%, and 50 μL of PBS 1X-Saponin 0.1% + antihuman IgG-FITC at a 1:200 dilution was added. The plate was incubated wrapped in aluminum foil for 30 min. After incubation, the plate was washed four times with PBS 1X-Saponin 0.1%, and 50 μL of PBS 1X was added to all wells after the final wash. For nuclear staining, the plate, already stained with FITC, was washed three times with PBS 1X, and 200 μL of PBS 1X + 1 μL of iodide per well was added. After staining, the wells were washed again, and 100 μL of PBS 1X was added before imaging.
# (§5) The plate was analyzed in the EVOS fluorescence microscope for image acquisition and fluorescence identification, in which the anti-IgG-FITC stains parasite′s membrane in green and iodide stains nuclei in red. On each condition of treatment, 200 cells of 3 wells were evaluated as to the number of infected cells and the number of parasites per cell for calculating the index of infection the IC50 were calculated by Nonlinear regression curves (log[inhibitor] vs normalized response). Selective index was calculated by dividing CC50 per IC50.
# [6] = test system: T. cruzi intracellular amastigotes (Colombian strain) in LLC-MK2 cells; assay: Antiamastigote activity, infection index, treatment after infection, LLC-MK2; type: cell-based, Trypanosoma cruzi; conditions: infected LLC-MK2, 48 h treatment after infection
# Procedure: as §3, §1, §4, §5
# [7] = test system: T. cruzi Tulahuen CL2 β-galactosidase strain; assay: Antitrypanosomal screening, anti-T. cruzi (trypomastigote) activity, CPRG photometric method; type: cell-based; conditions: Trypanosoma cruzi; Tulahuen CL2 β-galactosidase strain on MRC-5SV2; values in parentheses mean ± SEM of two experiments
# Procedure: A preliminary assay was conducted to evaluate the analogs’ in vitro cytotoxicity and antitrypanosomatid activity against T. cruzi Tulahuen strain (Table ). […] However, the promising results of analog 16 encouraged us to conduct more in-depth studies on this compound.
# Anti-parasitic assays were conducted following established protocols outlined in earlier literature. In brief, for assessing anti-T. cruzi activity, the Tulahuen CL2 β-galactosidase strain (nifurtimox-sensitive) was employed and maintained on MRC-5SV2 (human lung fibroblast). A total of 4 × 10^3 cells were infected with 4 × 10^4 parasites per well. The synthesized analogs were tested at concentrations ranging from 1.56 to 50.00 μM. Parasite burdens were evaluated after the addition of the substrate CPRG (chlorophenol red ß-D-galactopyranoside). The change in color was measured spectrophotometrically at 540 nm after 4 h of incubation at 37°C. In all assays, parasite growth was compared to untreated-infected controls (100% growth) and noninfected controls (0% growth). Results were expressed as the percentage of parasite reduction at different drug concentrations and used to calculate IC50 values from the dose–response curves.
# [8] = Cellular viability (MTT), noninfected C2C12; type: cell-based, murine; conditions: mouse, noninfected C2C12 myoblast cells; noninfected C2C12, Table 2 (treatment after infection); read-out: CC50 non infected C2C12
# Procedure: as §1
# The LLC-MK2 (ATCC CCL-7) cell line of epithelial origin, and C2C12 (ATCC CRL-1772) myoblast cells, derived from murine myoblasts, were maintained in Roswell Park Memorial Institute-RPMI 1640 medium supplemented with L-glutamine, 25 mM HEPES (Corning), 10% (v/v) fetal bovine serum (FBS), and gentamicin (1 μL/mL). […] Once the cells reached 80% confluence, were detached using Trypsin-EDTA and prepared in the subsequent experiments.
# as §2
# [9] = Preliminary cytotoxicity assay, resazurin; type: cell-based; conditions: human MRC-5 cell line, 3 days incubation
# Procedure: MRC-5SV2 cell cytotoxicity was assessed following the methodology outlined in earlier literature. Briefly, cells at a concentration of 1.5 × 10^5 cells/mL were cultured with compound dilutions at 37 °C and 5% CO2. Cell growth was compared to untreated-control wells (100% cell growth) and medium-control wells (0% cell growth). After 3 days of incubation, cell viability was fluorometrically assessed following the addition of 50-μL resazurin per well. Fluorescence was measured after 4 h at 37 °C (λex 550 nm, λem 590 nm). The results were expressed as the percentage reduction in cell growth/viability compared to control wells, and an IC50 value was determined.
# [10] = Cytotoxicity against primary mouse macrophages; type: cell-based
# Excerpt: 1 In Vitro Anti- T. cruzi (Trypomastigote) Activity and Cytotoxicity Assessment of Hit 1 Analogs ^a | column: PMM CC50 (μM)
# [11] = mouse, primary mouse macrophages (PMM)
SMILES,IC50 [7] [µM],CC50 at 3 days ([9]; MRC-5SV2 lung fibroblast cells) [µM],"CC50 [10, 11] [µM]",also measured
"CC(=O)NC1C(O)C(F)C(F)(C(=O)O)OC1C(O)C(O)CO (stereo not drawn) [2,3-difluorosialic acid]",–,–,–,Ki ([1]; irreversible inhibitors): 20000 µM
"O=C(Cn1ccnc1[N+](=O)[O-])NCc1ccccc1 [BZN, reference compound]",1.64,–,–,"Kobs (12.5 μM) ([2]; compound 12.5 μM): 0.13 ± 0.01 s^–1; Kobs (25 μM) ([2]; compound 25 μM): 0.17 ± 0.05 s^–1; Kobs (50 μM) ([2]; compound 50 μM): 0.32 ± 0.04 s^–1; Kobs (100 μM) ([2]; compound 100 μM): 0.23 ± 0.07 s^–1; CC50 at 24 h [3]: 46.9 µM; IC50 [4]: 34 µM; IC50 [5]: 6 ± 1 µM; IC50 ([6]; Trypanosoma cruzi, LLC-MK2, 48 h): 1.43 ± 0.1 µM; IC50 [6]: 1.4 ± 0.1 µM; CC50 at 24 h [8]: 74.4 µM"
"O=C(Cn1cc(-c2ccc([N+](=O)[O-])cc2)nn1)NCc1ccccn1 [Compound 10, 2-(4-(4-Nitrophenyl)-1H-1,2,3-triazol-1-yl)-N-(yridine-2-ylmethyl)acetamide]",> 50,> 50,> 50,–
"O=C(Cn1cc(-c2ccc([N+](=O)[O-])cc2)nn1)NCc1cccnc1 [Compound 11, 2-(4-(4-Nitrophenyl)-1H-1,2,3-triazol-1-yl)-N-((pyridin-3-yl)methyl)acetamide]",> 50,> 50,> 50,–
"O=C(Cn1cc(-c2ccc([N+](=O)[O-])cc2)nn1)NCc1ccc(O)cc1 [Compound 12, N-(4-Hydroxybenzyl)-2-(4-(4-nitrophenyl)-1H-1,2,3-triazol-1-yl)acetamide]",31,> 50,> 50,–
"N#Cc1ccc(CNC(=O)Cn2cc(-c3ccc([N+](=O)[O-])cc3)nn2)cc1 [Compound 13, N-(4-Cyanobenzyl)-2-(4-(4-nitrophenyl)-1H-1,2,3-triazol-1-yl)acetamide]",> 50,> 50,35.4,–
"N#Cc1ccc(Cn2cc(-c3ccc([N+](=O)[O-])cc3)nn2)cc1 [Compound 15, 4-((4-(4-Nitrophenyl)-1H-1,2,3-triazol-1-yl)methyl)benzonitrile]",> 50,> 50,> 50,–
"O=C(O)Cn1cc(-c2ccc([N+](=O)[O-])cc2)nn1 [Compound 17, 2-(4-(4-Nitrophenyl)-1H-1,2,3-triazol-1-yl)acetic Acid]",> 50,> 50,> 50,–
"O=C(O)c1ccc(Cn2cc(-c3ccc([N+](=O)[O-])cc3)nn2)cc1 [Compound 18, 4-((4-(4-Nitrophenyl)-1H-1,2,3-triazol-1-yl)methyl)benzoic Acid]",> 50,> 50,> 50,–
"O=[N+]([O-])c1ccc(Cn2cc(-c3ccc(CO)cc3)nn2)cc1 [Compound 21, (4-(1-(4-Nitrobenzyl)-1H-1,2,3-triazol-4-yl)phenyl)methanol]",> 50,> 50,> 50,–
"O=[N+]([O-])c1ccc(Cn2cc(-c3cccnc3)nn2)cc1 [Compound 22, 3-(1-(4-Nitrobenzyl)-1H-1,2,3-triazol-4-yl)pyridine]",4.17,5.06,> 50,–
"Nc1ccc(-c2cn(Cc3ccc([N+](=O)[O-])cc3)nn2)cc1 [Compound 23, 4-(1-(4-Nitrobenzyl)-1H-1,2,3-triazol-4-yl)aniline]",> 50,> 50,> 50,–
"O=[N+]([O-])c1ccc(Cn2cc(-c3ccc([N+](=O)[O-])cc3)nn2)cc1 [Compound 24, 1-(4-Nitrobenzyl)-4-(4-nitrophenyl)-1H-1,2,3-triazole]",> 50,–,–,"CC50 at 3 days [9]: > 50 µM; CC50 ([10]; primary mouse macrophages, read-out: PMM CC50): > 50 µM"
"Cn1cncc1-c1cn(Cc2ccc([N+](=O)[O-])cc2)nn1 [Compound 25, 4-(1-Methyl-1H-imidazol-5-yl)-1-(4-nitrobenzyl)-1H-1,2,3-triazole]",> 50,> 50,> 50,–
"COc1cccc(-c2cn(Cc3ccc([N+](=O)[O-])cc3)nn2)c1 [Compound 26, 4-(3-Methoxyphenyl)-1-(4-nitrobenzyl)-1H-1,2,3-triazole]",> 50,> 50,> 50,–
"O=[N+]([O-])c1ccc(Cn2cc(-c3ccccc3CO)nn2)cc1 [Compound 27, (2-(1-(4-Nitrobenzyl)-1H-1,2,3-triazol-4-yl)phenyl)methanol]",> 50,> 50,> 50,–
"COc1cc(OC)cc(-c2cn(Cc3ccc([N+](=O)[O-])cc3)nn2)c1 [Compound 28, 4-(3,5-Dimethoxyphenyl)-1-(4-nitrobenzyl)-1H-1,2,3-triazole]",> 50,> 50,> 50,–
CCOC(=O)C1=C[C@@H](OC(CC)CC)[C@H](NC(C)=O)[C@@H](N)C1 [Oseltamivir],–,–,–,inhibition of trans-sialidase [1]: weak inhibition of trans-sialidase in the millimolar range
CC(=O)N[C@H]1[C@H]([C@H](O)[C@H](O)CO)OC(C(=O)O)=C[C@@H]1N=C(N)N [Zanamivir],–,–,–,inhibition of trans-sialidase [1]: weak inhibition of trans-sialidase in the millimolar range
OC[C@@H](O)[C@@H](O[C@@H]1O[C@H](CO)[C@H](O)[C@H](O)[C@H]1O)[C@H](O)[C@@H](O)CO [lactitol],–,–,–,IC50 ([1]; acceptor analog): 570 µM
